Key:
[1] = tested on: untransfected bovine fetal fibroblasts (BFF cells); type: cell-based
PrP^ac [2] = biological target: PrP^ac (Mesocricetus auratus, UniProt P04273); conditions: scrapie-infected hamsters, controlled study; cited from earlier work
PrP^ac [3] = biological target: PrP^ac (Mus musculus, UniProt P04925); conditions: cell culture; not tested in animal models; cited from earlier work
Chain of PrP^ac (Mus musculus, UniProt P04925) (P04925 23-230 limits assumed): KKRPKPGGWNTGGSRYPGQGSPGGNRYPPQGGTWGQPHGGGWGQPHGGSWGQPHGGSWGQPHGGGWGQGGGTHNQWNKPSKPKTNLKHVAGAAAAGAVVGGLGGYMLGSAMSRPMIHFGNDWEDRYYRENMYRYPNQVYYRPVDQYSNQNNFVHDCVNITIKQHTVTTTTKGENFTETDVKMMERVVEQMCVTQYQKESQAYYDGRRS

Chain of PrP^ac (Mesocricetus auratus, UniProt P04273) (P04273 23-231 limits assumed): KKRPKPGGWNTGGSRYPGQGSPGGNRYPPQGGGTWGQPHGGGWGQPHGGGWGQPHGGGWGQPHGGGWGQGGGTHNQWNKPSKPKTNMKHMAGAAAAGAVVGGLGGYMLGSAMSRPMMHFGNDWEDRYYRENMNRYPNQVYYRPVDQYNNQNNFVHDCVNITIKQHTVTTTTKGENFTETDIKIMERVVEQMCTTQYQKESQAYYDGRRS

Q: With `CN[C@@H]1[C@@H](O)[C@@H](O[C@@H]2[C@@H](O)[C@H](O[C@H]3O[C@H]([C@@H](C)O)[C@@H](O)[C@H](O)[C@H]3N)[C@@H](N)C[C@H]2N)OC[C@]1(C)O` [G418, geneticin (G418)] as the compound, how does the “concentration sufficient to kill non-neomycin containing BFF cells but allow rapid growth of BFF cells with transfected neomycin gene” value [1] read?
A: Its value is 400 µg/mL.

Q: And the “concentration that will sufficiently kill non-neomycin containing BEF cells but allow proliferation of cells with transfected neomycin gene” value [1]?
A: The value was 400 µg/mL.

Q: What about the “lag time in drug selection” value [1] of the same compound?
A: The value was “approximately 3 days”.

Q: What about the “time of drug selection until BFF cells were dead” value [1] of the same compound?
A: Its value is ≤ 3 days.

Q: For `C[C@@H]1[C@H](O)[C@@H](C)/C=C/C=C/C=C/C=C/C=C/C=C/C=C/[C@H](O[C@@H]2O[C@H](C)[C@@H](O)[C@H](N)[C@@H]2O)C[C@@H]2O[C@](O)(C[C@@H](O)C[C@@H](O)[C@H](O)CC[C@@H](O)C[C@@H](O)CC(=O)O[C@H]1C)C[C@H](O)[C@H]2C(=O)O` [amphotericin B], which “effect on accumulation of PrP^ac” value (PrP^ac [2]) is on record?
A: Its value is “delayed the accumulation of PrP^ac”.

Q: Which “effect on accumulation of PrP^ac” value (PrP^ac [3]) does the source give for pentosan polysulfate here?
A: The value was “prevent accumulation of PrP^ac”.

Q: With `Nc1c(/N=N/c2ccc(-c3ccc(/N=N/c4cc(S(=O)(=O)O)c5ccccc5c4N)cc3)cc2)cc(S(=O)(=O)O)c2ccccc12` [Congo red] as the compound, how does the “effect on accumulation of PrP^ac” value (PrP^ac [3]) read?
A: Its value is “prevent accumulation of PrP^ac”.
